The text below walks through data of article PMC7486399 (Nature Communications, 2020).

Test [1] deals with A549 cells. In kind it is cell-based, human.
Test [2] has as its system A549-ACE2 cells. The format is cell-based, human.
In test [3] the test system is mixed culture of A549 and A549-ACE2 cells. In kind it is cell-based, human. The following applies: AFM.
For test [4], the system named is interaction between the S1 subunit and ACE2 receptor. The test can be described thus: AFM competition binding: ACE2-derived peptides vs S1 subunit-ACE2 binding on model surface. To be noted: for binding probability (BP) with peptide (Fig. 4b) / reduction in the BP (S1-ACE2 complex formation): 250 ms contact time; for binding probability (BP) with peptide (Fig. 4b): mean, N ≥ 3, 0 µM BP: 22-44 10.8724, 22-57 8.6263, 22-44-g-351-357 10.6771, 351-357 8.65885, PEG tip 2.60417; for delta binding (change of binding probability, Fig. 4c): vs 0 µM; for decrease in the BP on purified receptor: AFM on purified ACE2 receptor; for 50% inhibitory concentration (IC50): S1-ACE2 binding by AFM, estimated from 1, 10, 100 µM; for reduction in the BP (S1-ACE2 complex formation): concentration not printed in the sentence (tested 1, 10, 100 µM).

Test [5] relates to A549-ACE2 cells. Description: AFM S1 binding probability on A549-ACE2 cells before and after [22-57] peptide. To be noted: for BP (Fig. 5a), 100 μM peptide: 100 μM [22–57]. In kind it is cell-based, human.
Test [6] relates to A549 cells. Description: AFM S1 binding probability on A549 cells before and after [22-57] peptide. In kind it is cell-based, human. To be noted: for BP (Fig. 5a), 100 μM peptide: A549 cells, 100 μM [22–57].
[7] abbreviates: 1 µM peptide, ddH2O control 27.2772.
Setting [8] is: 10 µM peptide, ddH2O control -35.4337.
Where [9] appears, read: 100 µM peptide, ddH2O control -21.9737.

Several values for one entry are separate records, joined by “and”; a condition that tells them apart may be missing. Equal entries are not always repeated.

On to 9-O-acetyl-2-α-O-propargyl-SC [SA], for which the “binding probability + SA (Fig. 3f)” value is 4.4 and 4.6 and 7 and 7.2 in test [1]; 12.6 and 8.7 and 9 and 10.4 in test [2]. Also, the “binding frequency after SA injection” value in test [1] (A549 cells, 9-O-acetyl-sialogycans, 1 mM) is recorded as ~ 7%; in test [2] ([…], 9-O-acetyl-sialogycans, 1 mM), “≈ 10%”.

For the substance “[22–44]: ACE2-derived peptide fragment 22–44, N-terminal helix of ACE2 (sequence in Supplementary Fig. 9)”, the “decrease in the BP on living cells” value in test [3] is more than 70%. For the same substance, the “binding probability (BP) with peptide (Fig. 4b)” value (shortened to “binding probability (BP)”) amounted to 6.934 in test [4] (1 µM peptide), 4.232 in test [4] (10 µM peptide) and 4.6224 in test [4] (100 µM peptide). In addition, the “delta binding (change of binding probability, Fig. 4c)” value in test [4] (setting [7]) is -48.3738; in test [4] (setting [8]), -79.2642; in test [4] (setting [9]), -75.9263. Also, the “decrease in the BP on purified receptor” value in test [4] is more than 70%. Further, the “50% inhibitory concentration (IC50)” value in test [4] was “in the µM range”. Also, the “reduction in the BP (S1-ACE2 complex formation)” value in test [4] was ~ 76%.

As for “[22–44–g–351–357]: ACE2-derived fragments 22–44 and 351–357 joined by a glycine residue (EEQAKTFLDKFNHEAEDLFYQSSGLGKGDFR)”, the “binding probability (BP)” value in test [4] (1 µM peptide) is recorded as 6.641; in test [4] (10 µM peptide), 4.915; in test [4] (100 µM peptide), 4.655. The “delta binding (change of binding probability, Fig. 4c)” value is listed as -45.2583 in test [4] (setting [7]), -63.4203 in test [4] (setting [8]) and -62.3402 in test [4] (setting [9]). The “binding inhibition, result in words” value in test [4] (compared with the other peptides) is given as “we did not notice any strong improvement in the binding inhibition”.

As to “[22–57]: ACE2-derived peptide fragment 22–57, N-terminal helix of ACE2 (sequence in Supplementary Fig. 9)”, in test [3], the “decrease in the BP on living cells” value is on record as more than 70%. The “BP (Fig. 5a), 100 μM peptide” value was 9.7 in test [5] (replicate 1 (0 μM: 17)); 8.5 in test [5] (replicate 2 (0 μM: 15.7)); 4.4 in test [5] (replicate 3 (0 μM: 29)); 10.1 in test [5] (replicate 4 (0 μM: 15.9)); 4.3 in test [6] (replicate 1 (0 μM: 10.8)); 4.1 in test [6] (replicate 2 (0 μM: 9.7)). Moreover, the “BP (Fig. 5a), 100 μM peptide” value in test [6] (replicate 3 (0 μM: 7.7)) was determined as 1.9. The “BP level after peptide injection” value in test [5] (100 µM peptide) is reported as “reaching a level close to the one of the control cells”. The “change of BP after peptide injection” value in test [6] (A549 cells (both cell types), 100 µM peptide) was “significant decrease of the BP on both cell types”. In addition, the “binding probability (BP)” value in test [4] (1 µM peptide) amounted to 6.706; in test [4] (10 µM peptide), 5.599; in test [4] (100 µM peptide), 4.167. Also, the “delta binding (change of binding probability, Fig. 4c)” value in test [4] (setting [7]) is -31.3144; in test [4] (setting [8]), -50.4102; in test [4] (setting [9]) it was -74.5041. For the same substance, the “decrease in the BP on purified receptor” value in test [4] is given as more than 70%. Moreover, in test [4], the “50% inhibitory concentration (IC50)” value was “in the µM range”. Further, the “reduction in the BP (S1-ACE2 complex formation)” value in test [4] was ~ 74%.

For the substance “[351–357]: ACE2-derived peptide fragment 351–357, part of a hot binding spot (LGKGDFR; UniProt Q9BYF1 351-357, looked up, fragment)”, the “binding probability (BP)” value came out at 5.599 in test [4] (1 µM peptide), 6.3151 in test [4] (10 µM peptide) and 5.339 in test [4] (100 µM peptide). Moreover, the “delta binding (change of binding probability, Fig. 4c)” value is recorded as -43.4556 in test [4] (setting [7]), -34.8403 in test [4] (setting [8]) and -54.9815 in test [4] (setting [9]).

cRGD: the “binding probability + RGD (Fig. 3f)” value in test [1] (S1 tip on A549 cells after cRGD, 500 μM, 37 °C, individual data points) is 13.1 and 7.8 and 10.6 and 9.5; in test [2] (S1 tip on A549-ACE2 cells after cRGD, 500 μM, 37 °C, individual data points) it was 14.1 and 9.9 and 20.6 and 14.7. Further, the “reduction of the binding frequency after cRGD injection” value in test [2] (A549-ACE2 cells, cRGD 500 μM) was 1–2%.
